{
  "source": "paper PMC11233931",
  "about": "“Remodeling tumor‐associated macrophage for anti‐cancer effects by rational design of irreversible inhibition of mitogen‐activated protein kinase‐activated protein kinase 2” (MedComm, 2024)",
  "assay_in_all_cases": "Eurofins kinase selectivity profile against 380 other human recombinant kinases (Table S2)",
  "type_in_all_cases": "biochemical",
  "key": {"[1]": {"target": "T1, 380 human recombinant protein kinases (Homo sapiens, UniProt Q96RR4)", "T1 construct": "purchased Eurofins (Celle Lévescault)", "conditions": "CaMKK2(h), read-out: Inhibition rate", "method_in_brief": "(§1)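 Outsourced panel: 380 human recombinant kinases; inhibitor tested at various concentrations; purpose: MK2 selectivity check.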"}, "[2]": {"target": "T2, 380 human recombinant protein kinases (Homo sapiens, UniProt Q16512)", "T2 construct": "purchased Eurofins (Celle Lévescault)", "conditions": "PRK1(h), read-out: Inhibition rate", "method_in_brief": "as §1"}, "[3]": {"target": "T3, 380 human recombinant protein kinases (Homo sapiens, UniProt P07332)", "T3 construct": "purchased Eurofins (Celle Lévescault)", "conditions": "Fes(h), read-out: Inhibition rate", "method_in_brief": "as §1"}, "[4]": {"target": "T4, 380 human recombinant protein kinases (Homo sapiens, UniProt Q92918)", "T4 construct": "purchased Eurofins (Celle Lévescault)", "conditions": "HPK1(h), read-out: Inhibition rate", "method_in_brief": "as §1"}, "[5]": {"target": "T5, 380 human recombinant protein kinases (Homo sapiens, UniProt Q06418)", "T5 construct": "purchased Eurofins (Celle Lévescault)", "T5 sequence (Q06418 41-890)": "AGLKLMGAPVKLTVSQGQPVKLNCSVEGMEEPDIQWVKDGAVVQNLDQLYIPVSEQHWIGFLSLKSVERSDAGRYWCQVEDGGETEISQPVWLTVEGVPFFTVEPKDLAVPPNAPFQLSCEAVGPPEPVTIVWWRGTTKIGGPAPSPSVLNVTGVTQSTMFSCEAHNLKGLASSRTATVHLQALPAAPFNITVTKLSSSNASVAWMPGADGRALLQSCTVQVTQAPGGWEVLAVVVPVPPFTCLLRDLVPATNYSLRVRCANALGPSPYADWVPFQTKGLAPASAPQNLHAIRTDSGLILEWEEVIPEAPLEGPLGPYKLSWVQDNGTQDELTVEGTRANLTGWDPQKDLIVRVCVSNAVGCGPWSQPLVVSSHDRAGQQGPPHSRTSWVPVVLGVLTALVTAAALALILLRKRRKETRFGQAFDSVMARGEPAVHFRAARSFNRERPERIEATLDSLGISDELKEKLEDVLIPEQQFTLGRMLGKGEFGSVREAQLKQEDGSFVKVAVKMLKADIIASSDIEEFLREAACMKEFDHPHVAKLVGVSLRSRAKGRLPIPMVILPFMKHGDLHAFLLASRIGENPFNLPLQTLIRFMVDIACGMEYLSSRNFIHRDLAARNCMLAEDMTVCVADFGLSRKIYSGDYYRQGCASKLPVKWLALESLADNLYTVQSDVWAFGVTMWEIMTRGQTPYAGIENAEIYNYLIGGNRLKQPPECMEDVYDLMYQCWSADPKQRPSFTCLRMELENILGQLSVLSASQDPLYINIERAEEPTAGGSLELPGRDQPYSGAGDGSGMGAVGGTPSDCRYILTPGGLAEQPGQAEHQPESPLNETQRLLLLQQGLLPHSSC", "conditions": "Rse(h), read-out: Inhibition rate", "method_in_brief": "as §1"}, "[6]": {"target": "T6, 380 human recombinant protein kinases (Homo sapiens, UniProt P49840)", "T6 construct": "purchased Eurofins (Celle Lévescault)", "conditions": "GSK3α(h), read-out: Inhibition rate", "method_in_brief": "as §1"}, "[7]": {"target": "T7, 380 human recombinant protein kinases (Homo sapiens, UniProt Q99759)", "T7 construct": "purchased Eurofins (Celle Lévescault)", "T7 sequence (Q99759 1-626)": "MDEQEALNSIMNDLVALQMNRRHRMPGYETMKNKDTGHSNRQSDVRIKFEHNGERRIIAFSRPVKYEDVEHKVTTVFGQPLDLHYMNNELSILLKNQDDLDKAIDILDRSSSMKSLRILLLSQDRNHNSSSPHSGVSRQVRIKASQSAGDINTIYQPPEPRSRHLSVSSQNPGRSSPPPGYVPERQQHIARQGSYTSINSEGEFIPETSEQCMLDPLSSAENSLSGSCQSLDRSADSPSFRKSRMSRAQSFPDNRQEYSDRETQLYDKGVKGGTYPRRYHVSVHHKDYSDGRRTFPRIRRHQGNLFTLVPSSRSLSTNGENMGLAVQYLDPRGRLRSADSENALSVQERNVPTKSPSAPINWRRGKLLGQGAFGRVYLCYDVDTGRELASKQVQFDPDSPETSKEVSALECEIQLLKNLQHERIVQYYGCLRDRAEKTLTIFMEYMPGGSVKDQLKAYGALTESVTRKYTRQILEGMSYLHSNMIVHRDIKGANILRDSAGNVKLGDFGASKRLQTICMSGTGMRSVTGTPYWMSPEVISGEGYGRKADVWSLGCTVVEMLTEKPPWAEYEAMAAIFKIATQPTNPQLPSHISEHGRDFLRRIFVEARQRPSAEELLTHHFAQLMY", "conditions": "MEKK3(h), read-out: Inhibition rate", "method_in_brief": "as §1"}, "[8]": {"target": "T8, 380 human recombinant protein kinases (Homo sapiens, UniProt P00519)", "T8 construct": "purchased Eurofins (Celle Lévescault)", "conditions": "Abl(h), read-out: Inhibition rate", "method_in_brief": "as §1"}, "[9]": {"target": "T9, 380 human recombinant protein kinases (Homo sapiens, UniProt Q06187, R28H)", "T9 construct": "purchased Eurofins (Celle Lévescault)", "T9 sequence (Q06187 whole entry R28H)": "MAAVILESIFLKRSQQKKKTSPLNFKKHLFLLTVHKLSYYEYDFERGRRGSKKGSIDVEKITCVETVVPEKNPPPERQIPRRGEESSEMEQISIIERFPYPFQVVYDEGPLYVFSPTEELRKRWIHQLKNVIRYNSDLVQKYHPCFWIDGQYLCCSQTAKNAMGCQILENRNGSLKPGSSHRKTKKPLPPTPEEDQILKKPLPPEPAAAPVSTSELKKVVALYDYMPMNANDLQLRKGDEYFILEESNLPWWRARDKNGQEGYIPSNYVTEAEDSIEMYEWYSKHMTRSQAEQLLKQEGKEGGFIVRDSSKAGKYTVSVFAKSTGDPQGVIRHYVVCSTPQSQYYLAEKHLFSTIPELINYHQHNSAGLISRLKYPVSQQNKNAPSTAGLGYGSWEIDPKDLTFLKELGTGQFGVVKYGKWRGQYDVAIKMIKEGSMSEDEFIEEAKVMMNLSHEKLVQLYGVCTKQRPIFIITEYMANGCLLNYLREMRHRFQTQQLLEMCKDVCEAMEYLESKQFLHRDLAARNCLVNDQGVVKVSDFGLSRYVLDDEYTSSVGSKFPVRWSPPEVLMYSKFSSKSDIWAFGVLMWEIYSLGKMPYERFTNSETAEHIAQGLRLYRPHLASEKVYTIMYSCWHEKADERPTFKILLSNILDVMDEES", "conditions": "BTK(R28H)(h), read-out: Inhibition rate", "method_in_brief": "as §1"}, "[10]": {"target": "T10, 380 human recombinant protein kinases (Homo sapiens, UniProt Q9NYY3)", "T10 construct": "purchased Eurofins (Celle Lévescault)", "T10 sequence (Q9NYY3 whole entry)": "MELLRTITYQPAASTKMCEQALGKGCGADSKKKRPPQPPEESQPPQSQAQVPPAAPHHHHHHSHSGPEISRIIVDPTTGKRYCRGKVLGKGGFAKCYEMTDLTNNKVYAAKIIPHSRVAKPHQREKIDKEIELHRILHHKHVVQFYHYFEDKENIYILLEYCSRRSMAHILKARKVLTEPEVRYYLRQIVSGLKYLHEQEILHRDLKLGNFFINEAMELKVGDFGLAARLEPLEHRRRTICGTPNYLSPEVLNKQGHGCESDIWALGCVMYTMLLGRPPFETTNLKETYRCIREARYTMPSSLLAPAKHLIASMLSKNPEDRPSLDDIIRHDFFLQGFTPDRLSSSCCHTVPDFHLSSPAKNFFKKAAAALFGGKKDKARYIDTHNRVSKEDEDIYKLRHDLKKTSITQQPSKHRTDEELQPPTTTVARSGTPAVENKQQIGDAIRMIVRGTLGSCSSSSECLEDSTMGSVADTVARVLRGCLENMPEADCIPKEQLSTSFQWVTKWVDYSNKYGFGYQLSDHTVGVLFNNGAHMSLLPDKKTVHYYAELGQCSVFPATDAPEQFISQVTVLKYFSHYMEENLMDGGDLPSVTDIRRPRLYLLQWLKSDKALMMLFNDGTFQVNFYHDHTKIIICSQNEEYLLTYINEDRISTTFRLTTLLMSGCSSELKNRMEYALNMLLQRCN", "conditions": "Snk(h), read-out: Inhibition rate (%)", "method_in_brief": "as §1"}, "[11]": {"target": "T11, 380 human recombinant protein kinases (Homo sapiens, UniProt Q9Y463)", "T11 construct": "purchased Eurofins (Celle Lévescault)", "T11 sequence (Q9Y463 whole entry)": "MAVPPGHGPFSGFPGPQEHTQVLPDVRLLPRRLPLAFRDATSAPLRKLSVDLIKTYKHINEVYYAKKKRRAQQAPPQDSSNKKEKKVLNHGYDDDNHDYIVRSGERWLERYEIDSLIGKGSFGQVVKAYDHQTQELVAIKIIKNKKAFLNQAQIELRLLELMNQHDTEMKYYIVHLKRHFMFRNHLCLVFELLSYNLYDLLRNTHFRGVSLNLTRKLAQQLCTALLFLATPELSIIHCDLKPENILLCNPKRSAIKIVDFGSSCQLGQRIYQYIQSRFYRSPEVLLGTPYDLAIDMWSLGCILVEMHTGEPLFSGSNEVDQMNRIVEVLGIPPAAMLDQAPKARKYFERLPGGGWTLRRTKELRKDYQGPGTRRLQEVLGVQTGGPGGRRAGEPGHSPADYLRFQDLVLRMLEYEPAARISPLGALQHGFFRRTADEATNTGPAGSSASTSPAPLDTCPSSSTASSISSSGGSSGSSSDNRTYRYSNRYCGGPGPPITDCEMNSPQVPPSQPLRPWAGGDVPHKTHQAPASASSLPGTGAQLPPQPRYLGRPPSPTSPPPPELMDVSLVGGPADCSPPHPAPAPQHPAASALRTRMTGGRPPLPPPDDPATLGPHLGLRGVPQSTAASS", "conditions": "DYRK1B(h), read-out: Inhibition rate", "method_in_brief": "as §1"}},
  "data": [
    {"smiles": "C=CC(=O)Nc1cc(-c2cc(-c3cc4c([nH]3)CCNC4=O)ccn2)ccc1OC(F)(F)F", "note": "[compound 11]", "values": [
      {"measurement": "inhibition at 0.01 µM", "setting": "[1]; 10 nM", "value": -9, "unit": "%"},
      {"measurement": "inhibition at 0.1 µM", "setting": "[1]; 100 nM", "value": -1, "unit": "%"},
      {"measurement": "inhibition at 1 µM", "setting": "[1]; 1000 nM", "value": 38, "unit": "%"},
      {"measurement": "inhibition at 0.01 µM", "setting": "[2]; 10 nM", "value": -3, "unit": "%"},
      {"measurement": "inhibition at 0.1 µM", "setting": "[2]; 100 nM", "value": 6, "unit": "%"},
      {"measurement": "inhibition at 1 µM", "setting": "[2]; 1000 nM", "value": 4, "unit": "%"},
      {"measurement": "inhibition at 0.01 µM", "setting": "[3]; 10 nM", "value": -7, "unit": "%"},
      {"measurement": "inhibition at 0.1 µM", "setting": "[3]; 100 nM", "value": -5, "unit": "%"},
      {"measurement": "inhibition at 1 µM", "setting": "[3]; 1000 nM", "value": 0, "unit": "%"},
      {"measurement": "inhibition at 0.01 µM", "setting": "[4]; 10 nM", "value": -8, "unit": "%"},
      {"measurement": "inhibition at 0.1 µM", "setting": "[4]; 100 nM", "value": -15, "unit": "%"},
      {"measurement": "inhibition at 1 µM", "setting": "[4]; 1000 nM", "value": 1, "unit": "%"},
      {"measurement": "inhibition at 0.01 µM", "setting": "[5]; 10 nM", "value": 7, "unit": "%"},
      {"measurement": "inhibition at 0.1 µM", "setting": "[5]; 100 nM", "value": -3, "unit": "%"},
      {"measurement": "inhibition at 1 µM", "setting": "[5]; 1000 nM", "value": -5, "unit": "%"},
      {"measurement": "inhibition at 0.01 µM", "setting": "[6]; 10 nM", "value": 15, "unit": "%"},
      {"measurement": "inhibition at 0.1 µM", "setting": "[6]; 100 nM", "value": -9, "unit": "%"},
      {"measurement": "inhibition at 1 µM", "setting": "[6]; 1000 nM", "value": 10, "unit": "%"},
      {"measurement": "inhibition at 0.01 µM", "setting": "[7]; 10 nM", "value": -5, "unit": "%"},
      {"measurement": "inhibition at 0.1 µM", "setting": "[7]; 100 nM", "value": 11, "unit": "%"},
      {"measurement": "inhibition at 1 µM", "setting": "[7]; 1000 nM", "value": 12, "unit": "%"},
      {"measurement": "inhibition at 0.01 µM", "setting": "[8]; 10 nM", "value": -9, "unit": "%"},
      {"measurement": "inhibition at 0.1 µM", "setting": "[8]; 100 nM", "value": -5, "unit": "%"},
      {"measurement": "inhibition at 1 µM", "setting": "[8]; 1000 nM", "value": 9, "unit": "%"},
      {"measurement": "inhibition at 0.01 µM", "setting": "[9]; 10 nM", "value": -27, "unit": "%"},
      {"measurement": "inhibition at 0.1 µM", "setting": "[9]; 100 nM", "value": 6, "unit": "%"},
      {"measurement": "inhibition at 1 µM", "setting": "[9]; 1000 nM", "value": 1, "unit": "%"},
      {"measurement": "inhibition at 0.01 µM", "setting": "[10]; 10 nM", "value": 0, "unit": "%"},
      {"measurement": "inhibition at 0.1 µM", "setting": "[10]; 100 nM", "value": 10, "unit": "%"},
      {"measurement": "inhibition at 1 µM", "setting": "[10]; 1000 nM", "value": 15, "unit": "%"},
      {"measurement": "inhibition at 0.01 µM", "setting": "[11]; 10 nM", "value": 21, "unit": "%"},
      {"measurement": "inhibition at 0.1 µM", "setting": "[11]; 100 nM", "value": 77, "unit": "%"},
      {"measurement": "inhibition at 1 µM", "setting": "[11]; 1000 nM", "value": 97, "unit": "%"}
    ]}
  ]
}
